Assay results: ChEMBL document CHEMBL3352427, “Rational design of the first difluorostatone-based PfSUB1 inhibitors” (Bioorg Med Chem Lett, 2014)
pIC50: −log10 of the molar value. Starred links: 1 amine or outer side, 2 acyl side, 3 side chain; linkers in the order of their positions; H or OH if unused. Non-standard residues stand in square brackets, D forms with d. Residues, ends and D or L forms follow the SMILES beside them. *: point of attachment. X1 = C[C@H](N[*:1])C(=O)C(F)(F)C(=O)[*:2]; X2 = C[C@H](N[*:1])C(O)C(F)(F)C(=O)[*:2]; Cbz = O=C(OCc1ccccc1)*; OBn = c1ccc(CO*)cc1; Bn = c1ccc(C*)cc1; βAla = NCCC(=O)O

Key:
[1] = target: T1, Subtilisin-like protease 1 (Plasmodium falciparum) (UniProt O61142); assay: Inhibition of Plasmodium falciparum serine protease subtilisin-like protease 1 at 100 uM by fluorimetric assay
T1 sequence (whole entry): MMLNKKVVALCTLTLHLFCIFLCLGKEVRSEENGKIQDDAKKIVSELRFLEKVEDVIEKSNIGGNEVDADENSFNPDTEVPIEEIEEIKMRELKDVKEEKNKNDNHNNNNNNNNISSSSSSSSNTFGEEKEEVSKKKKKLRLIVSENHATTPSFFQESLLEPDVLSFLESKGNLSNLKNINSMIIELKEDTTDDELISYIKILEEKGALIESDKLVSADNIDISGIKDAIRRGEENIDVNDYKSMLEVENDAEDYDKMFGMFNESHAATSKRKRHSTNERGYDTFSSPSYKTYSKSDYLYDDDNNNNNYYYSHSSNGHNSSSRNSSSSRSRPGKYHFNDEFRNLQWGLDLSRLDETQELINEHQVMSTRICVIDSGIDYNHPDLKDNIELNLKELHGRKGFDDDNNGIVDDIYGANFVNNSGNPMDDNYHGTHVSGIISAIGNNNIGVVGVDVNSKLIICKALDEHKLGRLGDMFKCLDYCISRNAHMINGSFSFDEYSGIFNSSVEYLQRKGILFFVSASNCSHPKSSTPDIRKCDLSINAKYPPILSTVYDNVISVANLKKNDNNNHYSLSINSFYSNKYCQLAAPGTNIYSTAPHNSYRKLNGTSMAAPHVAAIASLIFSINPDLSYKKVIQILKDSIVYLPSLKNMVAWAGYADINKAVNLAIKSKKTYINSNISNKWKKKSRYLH

[2] = target: T2, Subtilisin-like protease 1 (Plasmodium falciparum, UniProt O61142); assay: Inhibition of Plasmodium falciparum serine protease subtilisin-like protease 1by fluorimetric assay
T2 sequence (O61142 whole entry): T1 sequence (whole entry)

SMILES	inhibition [1]	pIC50 [2]
CC(=O)N[C@H](C(=O)N[C@@H](C)C(=O)N[C@@H](C)C(=O)C(F)(F)C(=O)NCC(=O)O)[C@@H](C)O	6%	
CC[C@H](C)[C@H](NC(C)=O)C(=O)N[C@H](C(=O)N[C@@H](C)C(=O)N[C@@H](C)C(=O)C(F)(F)C(=O)NCC(=O)OCc1ccccc1)[C@@H](C)OCc1ccccc1 (Ac-IT(Bn)A[X1]G-OBn)	59%	4.48
CC[C@H](C)[C@H](NC(=O)[C@H](CCCCNC(=O)OCc1ccccc1)NC(C)=O)C(=O)N[C@H](C(=O)N[C@@H](C)C(=O)N[C@@H](C)C(=O)C(F)(F)C(=O)NCC(=O)OCc1ccccc1)[C@@H](C)OCc1ccccc1 (Ac-K(Cbz)IT(Bn)A[X1]G-OBn)	71%	5.30
CC[C@H](C)[C@H](NC(=O)[C@H](CCCCNC(=O)OCc1ccccc1)NC(C)=O)C(=O)N[C@H](C(=O)N[C@@H](C)C(=O)N[C@@H](C)C(=O)C(F)(F)C(=O)NCCC(=O)OCc1ccccc1)[C@@H](C)OCc1ccccc1 (Ac-K(Cbz)IT(Bn)A[X1][βAla]-OBn)	14%	
CC[C@H](C)[C@H](NC(=O)[C@H](CCCCNC(=O)OCc1ccccc1)NC(C)=O)C(=O)N[C@H](C(=O)N[C@@H](C)C(=O)N[C@@H](C)C(O)C(F)(F)C(=O)NCC(=O)OCc1ccccc1)[C@@H](C)OCc1ccccc1 (some centres undefined) (Ac-K(Cbz)IT(Bn)A[X2]G-OBn)	3%	
CC[C@H](C)[C@H](NC(C)=O)C(=O)N[C@H](C(=O)N[C@@H](C)C(=O)N[C@@H](C)C(=O)C(F)(F)C(=O)NCC(=O)O)[C@@H](C)O (HELM PEPTIDE1{[ac].I.T.A.[C[C@H](N[*:1])C(=O)C(F)(F)C(=O)[*:2]].G}$$$$V2.0)	99%	6.22
CC[C@H](C)[C@H](NC(=O)[C@H](CCCCN)NC(C)=O)C(=O)N[C@H](C(=O)N[C@@H](C)C(=O)N[C@@H](C)C(=O)C(F)(F)C(=O)NCC(=O)O)[C@@H](C)O (HELM PEPTIDE1{[ac].K.I.T.A.[C[C@H](N[*:1])C(=O)C(F)(F)C(=O)[*:2]].G}$$$$V2.0)	100%	6.22
CC[C@H](C)[C@H](NC(=O)[C@H](CCCCN)NC(C)=O)C(=O)N[C@H](C(=O)N[C@@H](C)C(=O)N[C@@H](C)C(=O)C(F)(F)C(=O)NCCC(=O)O)[C@@H](C)O (HELM PEPTIDE1{[ac].K.I.T.A.[C[C@H](N[*:1])C(=O)C(F)(F)C(=O)[*:2]].[bAla]}$$$$V2.0)	63%	4.22
CC[C@H](C)[C@H](NC(C)=O)C(=O)N[C@H](C(=O)N[C@@H](C)C(=O)N[C@@H](C)C(O)C(F)(F)C(=O)NCC(=O)OCc1ccccc1)[C@@H](C)OCc1ccccc1 (mixture of isomers)	0%	
